The values that follow come from patent publication EP1561465A2, “Methods of use of fluoroquinolone compounds against bacteria” (LG Life Sciences, Ltd., priority 1999, dated 2001).

Molecules are shown by their SMILES. Values after ≈ are worked out from the molar mass of the structure shown. Read-outs that look alike come from different tables or passages of the source. Bounds are passed on as bounds.

Holding throughout (format): cell-based
Test [1] has as its system Staphylococcus aureus. In words: MIC by agar macrodilution (NCCLS), 373 Gram positive isolates, Athens 1998. Conditions: Methicillin-susceptible Staphylococcus aureus (n = 85).
The subject of test [2] is Streptococcus pneumoniae. In words: MIC by E-test (broth microdilution for gemifloxacin), 107 pneumococcal carrier isolates, Athens 1998. Conditions: Streptococcus pneumoniae, E-test; for MIC50: read-out: MIC50; for MIC90: read-out: MIC90. The protocol: Susceptibility testing was performed by agar dilution or epsilometer method (E-test), as recommended by the NCCLS. […] The susceptibility profiles of the strains were assessed using the Epsilometer method (E-test). The isolates were subdivided into two groups according to their penicillin susceptibility patterns (penicillin-susceptible and penicillin-intermediate.

Test [3] deals with Streptococcus pneumoniae. In words: MIC by agar dilution (NCCLS), 411 isolates Buenos Aires 1998-99. Conditions: Streptococcus pneumoniae, S. pneumoniae, read-out: MIC90. A general note: In agar dilution the substance is mixed into plates at graded concentrations.
[4] abbreviates: Penicillin-intermediate S. pneumoniae (n = 24).
Where [5] appears, read: Penicillin-susceptible S. pneumoniae (n = 107).

For the compound `CC[C@H]1OC(=O)[C@H](C)[C@@H](O[C@H]2C[C@@](C)(OC)[C@@H](O)[C@H](C)O2)[C@H](C)[C@@H](O[C@@H]2O[C@H](C)C[C@H](N(C)C)[C@H]2O)[C@](C)(O)C[C@@H](C)CN(C)[C@H](C)[C@@H](O)[C@]1(C)O` [Azithromycin, azithromycin], the MIC50 – broadly, the lowest concentration that inhibits either 50% of growth or 50% of the strains tested, depending on the study – in test [1] (read-out: MIC50) turned out to be 1 mg/L (≈ 1.34 µM); in test [2] (setting [4]), 1 mg/L (≈ 1.34 µM); in test [2] (setting [5]), 0.75 mg/L (≈ 1 µM). For the same compound, the MIC90 (usually the lowest concentration that inhibits either 90% of growth or 90% of the strains tested, depending on the study) is 2 mg/L (≈ 2.67 µM) in test [1] (read-out: MIC90); at least 256 mg/L in test [2] (setting [4]); 3 mg/L (≈ 4.01 µM) in test [2] (setting [5]); 1 mg/L (≈ 1.34 µM) in test [3] (Penicillin intermediate (n = 17)); 0.06 mg/L (≈ 0.0801 µM) in test [3] (Penicillin resistant (n = 4)); 0.06 mg/L (≈ 0.0801 µM) in test [3] (Penicillin susceptible (n = 69)).
